Results taken from US20130035358A1, “Bis Aromatic Compounds for Use as LTC4 Synthase Inhibitors” (priority 2010, published 2013).
Values after ≈ are worked out from the molar mass of the structure shown.

Tests used:
LTC4 synthase [1] = biological target: T1, LTC4 synthase (Homo sapiens, UniProt Q16873); assay: Test 2: LTC4 synthase IC50 procedure, ten concentrations, LTC4 HTRF kit; type: biochemical; conditions: Table 2; cells marked (Test 2)
T1 sequence (Q16873 1-150): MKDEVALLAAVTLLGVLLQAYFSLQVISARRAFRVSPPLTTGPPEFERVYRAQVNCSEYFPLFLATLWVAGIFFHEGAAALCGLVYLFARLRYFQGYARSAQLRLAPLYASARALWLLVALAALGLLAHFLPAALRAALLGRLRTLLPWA
Protocol: For certain compounds, in order to obtain IC50-values for the compounds, following procedure was used: • 1. A volume (24 μL) of 0.25 μg/mL LTC4 synthase in 75 mM tris (pH ˜8.5), 0.5 mM MgCl2 and 3 mM GSH was preincubated for 10 min with 0.5 μL of compound of interest in DMSO at ten different concentrations, typically in the range 10^−9,5-10^−5M as well as with DMSO only. The buffer is used as background. Runs are performed in duplicates. • 2. The enzymatic reaction is initiated by addition of 0.5 μL LTA4 in diglyme (final assay concentration 8 μM). • 3. The reaction is stopped after 1 min by addition of double the reaction volume of a stop solution (MeOH:H2O:acetic acid 70:30:1). • 4. After 15 fold dilution in PBS, LTC4 formation is detected with LTC4 HTRF kit (Cisbio, cat. No 64LC4PEC) and a fluorescence reader. Typically 10 μL of sample is mixed with 5 μL of each of the HTRF reagents d2 and k and analyzed as described in the kit manual.
The detected product concentration, with background subtracted, is plotted versus compound concentration and IC50 is determined as 50% of maximum inhibition.
(§1) IC50 values for title compounds of the examples are depicted in the tables hereinafter (where, they are the values obtained using Test 1, unless otherwise indicated).

[2] = Thermodynamic aqueous solubility in USP phosphate buffer (Example 25); type: physicochemical; conditions: aqueous buffer, thermodynamic from solid; USP phosphate buffer pH 7.4, 24 h at 20° C., LC-MS/MS; read-out: Thermodynamic aq solubility
Protocol: The method described here was developed to accurately determine the aqueous solubility of compounds of the invention in buffer solution at a given pH.
Solid material (1 mg) of test compound is added to a glass vial followed by 1 ml of buffer solution (pH 7.4 if another pH not is stated). The solution is left on an orbital shaker for 24 h at 20° C. After incubation, the remaining solid material is separated from solution and the solubility is quantified using LC-MS/MS.
Prepare 0.2 M monobasic potassium phosphate solution by dissolving 27.22 g of KH2PO4 (MW=136.09 g/mol) in water, dilute with water to 1000 mL.
Add 250 mL of the monobasic potassium phosphate solution in a 1000 mL volumetric flask together with 195.5 mL 0.2M NaOH (aq). Add water to 1000 mL. Check pH.
Compounds of the invention/examples to be tested were provided as solid material, weighed into glass vials (2 mL). Each vial contains approximately 1 mg solid compound, two vials/compound are prepared, i.e. duplicate samples of each compound. If a freshly prepared 10 mM DMSO stock solution was available, this solution was used for MS optimization and preparation of standards. If a DMSO-stock solution was not available, a 10 mM solution from solid material 1 mg was prepared.
• Test compounds are employed as solid material. Since duplicate samples are prepared for each compound, each test compound arrives in two vials (1+1 mg). Samples are denoted as sample 1 and 2. • Note amount of substance in each vial. Add USP phosphate buffer pH 7.4 (1 mL) to each sample vial and seal vials using screw caps. Determine whether the solutions are saturated or if compounds are dissolved, note appearance and time. Start incubation; the samples are incubated on an orbital shaker (450 rpm) at 20° C. for 24 hours.
• Take out the 1 mM DMSO-stock solutions of compounds that are to be tested from freezer. If no 1 mM solutions are available, use master solutions with concentration of 10 mM. Allow the solutions to thaw at rt. • Collect two 96-deep well plates, glass inserts, sealing film, and an 8-channel expandable pipette with tall tips. • Abort shaking after 24 hour. • Note if samples are saturated or if compounds have dissolved. • Transfer 720 μL of sample slurry from each sample vial into glass inserts in a 96-deep well plate using an 8-channel expandable pipette. Samples 1 and 2 are transferred to separate plates. Thus, all samples 1 are placed in one plate and all samples 2 in the second plate. • Seal the plates using sealing film. • Centrifuge the plates at 3000 rpm for 15 min at rt. Set acceleration to 9 and brake to 7 (9=fastest acc/brake, 0=slowest acc/brake). • Transfer the supernatants to new glass inserts using an 8-channel pipette, centrifuge samples a second time. • Repeat the procedure above, i.e. centrifuge samples a third time. • After the third centrifugation, transfer supernatant to glass vials, seal vials with screw caps. Control that the solutions are clear and that no particles are present in sample. If solid material is observed, an additional centrifugation step is performed. • Standards are prepared from DMSO-stock solutions (1 or 10 mM). For each compound, transfer […] 1 mM solution to a glass vial, add DMSO (90 μL) to reach a final concentration of 100 μM, seal with screw cap and mix solution quickly on a vortex mixer. Further dilute the 100 μM solution with a 1:1 mixture of acetonitrile and USP phosphate buffer (pH 7.4) to standards with concentration 1000, 500, 100, 25, 2, and 1 nM. Standards are prepared in test tubes.
• Place standards in autosampler. • Try out the dilution of solubility samples so that their response will be within the standard curve. Dilute solubility sample one (or two) with the 1:1 mixture of acetonitrile:buffer. […]

LTC4 synthase [3] = biological target: T1, LTC4 synthase; assay: Test 1 in vitro assay: LTC4 synthase converts LTA4 to LTC4, HTRF detection; type: biochemical; parameters: made in house; host or cells: Pichia pastoris; conditions: Table 2; Test 1 (unless otherwise indicated)
Protocol: In the assay, LTC4 synthase catalyses the reaction where the substrate LTA4 is converted to LTC4. Recombinant human LTC4 synthase is expressed in Piccia pastoralis and the purified enzyme is dissolved in 25 mM tris-buffer pH 7.8 supplemented with 0.1 mM glutathione (GSH) and stored at −80° C. The assay is performed in phosphate buffered saline (PBS) pH 7.4 and 5 mM GSH in 384-well plates.
The following is added chronologically to each well:
1. 48 μL LTC4 synthase in PBS with 5 mM GSH. The total protein concentration in this solution is 0.5 μg/mL. 2. 1 μL inhibitor in DMSO (final concentration 10 μM). 3. Incubation of the plate at room temperature for 10 min. 4. 1 μL LTA4 (final concentration 2.5 μM). 5. Incubation of the plate at room temperature for 5 min. 6. 10 μL of the incubation mixture is analysed using homogenous time resolved fluorescent (HTRF) detection.
as §1

| IC50 (LTC4 synthase [1]) [nM] | solubility thermodynamic at 24 h [2] [µM] | IC50 (LTC4 synthase [3]) [nM] | SMILES |
| --- | --- | --- | --- |
| 129 | – | – | CCC(=O)c1ccc(C(=O)c2ccc(N(CC3CC3)c3ccc(Cl)cc3)cn2)cc1C(=O)O [Example 23, 5-(5-((4-Chlorophenyl)(cyclopropylmethyl)amino)picolinoyl)-2-propionylbenzoic acid] |
| 307 | 1860 (≈ 835 µg/mL) | – | CC(=O)c1ccc(C(=O)c2ccc(N(CC3CC3)c3ccc(Cl)cc3)cn2)cc1C(=O)O [Example 22, 2-Acetyl-5-(5-((4-chlorophenyl)(cyclopropylmethyl)amino)picolinoyl)benzoic acid] |
| 424 | – | – | O=C(c1ccc(C(=O)C2CC2)c(C(=O)O)c1)c1ccc(N(CC2CC2)c2ccc(Cl)cc2)cn1 [Example 24, 5-(5-((4-Chlorophenyl)(cyclopropylmethyl)amino)picolinoyl)-2-(cyclopropanecarbonyl)benzoic acid] |
| – | 1210 (≈ 637 µg/mL) | 30 | O=C(c1ccc(C(=O)c2cccc(O)c2)c(C(=O)O)c1)c1ccc(N(CC2CC2)c2ccc(Cl)cc2)cn1 [Example 14, 5-(5-((4-Chlorophenyl)(cyclopropylmethyl)amino)picolinoyl)-2-(3-hydroxybenzoyl)benzoic acid] |
| – | 37 (≈ 18.7 µg/mL) | 59 | CN(c1ccc(Cl)cc1)c1ccc(C(=O)c2ccc(C(=O)CCC3CCCCC3)c(C(=O)O)c2)nc1 [Example 18, 5-(5-((4-Chlorophenyl)(methyl)amino)picolinoyl)-2-(3-cyclohexylpropanoyl)benzoic acid] |
